According to US20080287467A1, “Therapeutic Agent for Respiratory Diseases” (priority 2004, published 2008):
Read-outs that look alike come from different tables or passages of the source.

Tested on: swine bronchial smooth muscle cells
Assay: Patch cramp (whole-cell) measurement of membrane current and membrane potential, ATP-induced inward current
Format: cell-based
Description: In the present specification, the patch cramp method is a method including allowing a glass micropipette (patch electrode) to attach tightly to cell membrane at a high resistance in giga-ohms (GΩ) or more and then measuring ion currents in conditions that a very small membrane region (patch membrane) on the top opening of the electrode is electrically isolated from other regions. In particular, the inventors measured and analyzed electric currents by the whole-cell mode including opening a hole by breaking the patch membrane to record ion current flowing through the whole cell membrane except the broken patch membrane.
Swine bronchial smooth muscle tissue was finely chopped and incubated at 37° C. for 40 minutes, using collagenase and papain, to isolate the cells.

In the case of `COc1ccc(CCCOC(Cn2ccnc2)c2ccc(OC)cc2)cc1` (stereo not shown) [SKF 96365], the “suppression of the ATP-induced inward current” value (“suppression” below) is reported as “about 50%”.
`Cc1nc(N=Nc2ccc(S(=O)(=O)O)cc2S(=O)(=O)O)c(COP(=O)(O)O)c(C=O)c1O` [PPADS, pyridoxal phosphate-6-azophenyl-2′,4′-disulfonic acid] was tested, and the “suppression” value (concentration not given) was “No suppression”.
`COc1ccc2c(c1)CC[C@@H]1[C@@H]2CC[C@]2(C)[C@@H](NCCCCCCN3C(=O)C=CC3=O)CC[C@@H]12` [U-73122] was tested, and the “suppression” value (treatment with 100 μM, subsequent ATP dosing) was “no suppression”.
ivermectin was tested, and the “enhancement of the ATP-induced inward current” value (FIG. 2) was 3.5 fold.
With `Nc1ncnc2c1ncn2[C@@H]1O[C@H](COP(=O)(O)OP(=O)(O)OP(=O)(O)O)[C@@H](O)[C@H]1O` [ATP, adenosine-5′-triphosphate] the “cellular membrane potential after depolarization due to ATP” value (electric current fixed, depolarized from −40 mV) was −20 mV and the “membrane current on ATP administration” value (membrane potential maintained at −40 mV) was “inward current passed”.
With `Cc1ccc(C(=O)Nc2ccc(S(=O)(=O)O)c3cc(S(=O)(=O)O)cc(S(=O)(=O)O)c23)cc1NC(=O)c1cccc(NC(=O)Nc2cccc(C(=O)Nc3cc(C(=O)Nc4ccc(S(=O)(=O)O)c5cc(S(=O)(=O)O)cc(S(=O)(=O)O)c45)ccc3C)c2)c1` [suramin] the “suppression” value (concentration not given) was “No suppression”.
